# Source: patent publication US8772199B2, “Herbicidal compositions for tolerant or resistant maize crops” (Bayer Intellectual Property GmbH, priority 1998, dated 2014)
# Columns and labels:
# Test in all cases: Field trial with maize, herbicidal action
# Assay type in all cases: in vivo
# Lolium multiflorum = conditions: 2.5 g of a.s./ha; application 2- to 4-leaf stage; scoring 26 days after application
# Protocol: (§1) Transgenic maize plants with a resistance to one or more herbicides (A) together with typical weed plants were grown in the open on 2×5 m plots under natural field conditions; alternatively, weed infestation occurred naturally when the maize plants were grown.
# (§2) […] The damage to, and the development of, all aerial parts of the plants was recorded. Scoring was done on the basis of a percentage sale (100% action=all plants destroyed; 50% action=50% of the plants and green parts of the plants destroyed; 0% action=no recognizable effect=like control plot. The mean of the score values of in each case 4 plots was calculated.
# Lamium amplexicaule = conditions: 2.5 g of a.s./ha; application 1-leaf stage; scoring 17 days after application
# Protocol: as §1, §2
# Fagopyrum esculentum = conditions: 2.5 g of a.s./ha; application 2- to 4-leaf stage; scoring 26 days after application
# Protocol: as §1, §2
# Cassia obtusifolia = conditions: 925 g of a.s./ha; application 3-leaf stage; scoring 21 days after application
# Protocol: as §1, §2
SMILES,Herbicidal action (%) against Lolium multiflorum (Lolium multiflorum) [%],Herbicidal action (%) against Lamium amplexicaule (Lamium amplexicaule) [%],Herbicidal action (%) against Fagopyron esculentum (Fagopyrum esculentum) [%],Herbicidal action (%) against Cassia obtusifolia (Cassia obtusifolia) [%]
"COc1nc(C)nc(NC(=O)NS(=O)(=O)c2cc(I)ccc2C(=O)O)n1 [(B2.3), 4-iodo-2-(4-methoxy-6-methyl-1,3,5-triazin-2-ylcarbamoylsulfamoyl)benzoic acid]",84,55,85,
"CCC(CC)Nc1c([N+](=O)[O-])cc(C)c(C)c1[N+](=O)[O-] [(B2.1), N-(1-ethylpropyl)-2,6-dinitro-3,4-xylidine]",,,,0
